Here are results for 24 molecules from patent US10829458B2 (Araxes Pharma LLC, priority 2015, dated 2020).

Data set [1] is described as follows: Whole blood stability. It is filed as in vitro ADME. The note with it: mouse, whole blood, 37° C., time points 0, 1, 2, 4 hr, LC/MS/MS, read-out: Whole Blood Stability (T1/2) hr. Mouse (converted). The procedure: Test compounds were prepared as a 500 μM stock solution in DMSO (Adding 10 μl of 10 mM DMSO stock solution to 190 μl of 100% DMSO). Whole blood was thawed on ice. A whole blood plate was prepared by adding 460 μl of the whole blood (different species as needed) to a 96-well in ml deep well plate. The whole blood plate was preincubated at 37° C. for 10 min. 4 μl of compound solution and 396 μl of whole blood was added to the plate and mixed thoroughly. Each sample was aliquoted (30 μl) to the incubation plate (cluster tubes) and quenched at time zero with ice-cold 100% ACN, and the incubation plates were added to the 37° C. incubator (200 μl).
The time zero sample was maintained at 4° C. until centrifuged. All other samples were quench at different time points (1, 2, 4 hr), vortexed for 30 seconds and centrifuged at 3500 rpm for 15 min at 4° C. 30 μl of supernatant was added to 170 μl 0.1% FA aqueous solution and the sample was analyzes by LC/MS/MS.

Data set [2] has as its target T1, KRAS G12C 1-169, his-tagged protein, GDP-loaded (Homo sapiens, UniProt P01116, G12C).
T1 construct: KRAS G12C 1-169, his-tagged protein, GDP-loaded
Put plainly: Biochemical assay: covalent modification of KRAS G12C measured by mass spectrometry (RapidFire/TOF or Q-Exactive). The note with it: covalent binding to KRAS G12C; compounds of structure (III). In short, it runs like this: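 Covalent adduct formation read by intact-mass spectrometry (TOF or Q Exactive Plus, charge envelopes deconvoluted into modified and unmodified species) after formic acid quench. Reactions contained 2 μM GDP-bound KRAS G12C 1-169 (his-tag) in Hepes/NaCl/MgCl2 buffer plus 10, 30 or 100 μM final compound, held 30 min, 2 h or 24 h at room temperature.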

With `C=CC(=O)N1CCN(c2ncnc3c(F)c(-c4c(O)cccc4F)c(Cl)cc23)CC1` (atropisomer, axis not shown) [A, reference compound], the half-life at 5 µM in data set [1] is 239 min. For `C=CC(=O)N1CCN(c2ncnc3c(F)c(-c4c(O)cccc4F)c(Cl)cc23)[C@@H](C)C1` (atropisomer, axis not shown) [III-23, 1-((S)-4-((R)-6-chloro-8-fluoro-7-(2-fluoro-6-hydroxy-phenyl)quinazolin-4-yl)-3-methyl-piperazin-1-yl)prop-2-en-1-one], in data set [2], the Binding % result is “+ (+ indicates binding activity up to 50%)”. Besides, the half-life at 5 µM in data set [1] is greater than 720 min. As for `C=CC(=O)N1CCN(c2ncnc3c(F)c(-c4c(O)cccc4F)c(Cl)cc23)CC12CC2` [III-10, 1-(7-(6-chloro-8-fluoro-7-(2-fluoro-6-hydroxy-phenyl)quinazolin-4-yl)-4,7-diazaspiro [2.5]octan-4-yl)prop-2-en-1-one], the Binding % entry in data set [2] is “+ (+ indicates binding activity up to 50%)”. The same measure, in the same setting: for `C=CC(=O)N1CCN(c2ncnc3c(F)c(-c4c(O)cccc4F)c(Cl)cc23)CC1C(F)(F)F` (stereo not shown) [III-11, 1-(4-(6-chloro-8-fluoro-7-(2-fluoro-6-hydroxy-phenyl)quinazolin-4-yl)-2-(trifluoro-methyl)piperazin-1-yl)prop-2-en-1-one] the value was “+++ (+++ indicates binding activity greater than 90%)”. With `C=CC(=O)N1CCN(c2ncnc3c(F)c(-c4c(O)cccc4F)c(Cl)cc23)[C@H](C)C1` [III-12, 1-((3R)-4-(6-chloro-8-fluoro-7-(2-fluoro-6-hydroxy-phenyl)quinazolin-4-yl)-3-methyl-piperazin-1-yl)prop-2-en-1-one], the Binding % entry in data set [2] is “+ (+ indicates binding activity up to 50%)”. Take `C=CC(=O)N1CCN(c2ncnc3c(F)c(-c4c(F)cccc4OC)c(Cl)cc23)[C@H](C)C1` [III-13, 1-((3R)-4-(6-chloro-8-fluoro-7-(2-fluoro-6-methoxy-phenyl)quinazolin-4-yl)-3-methyl-piperazin-1-yl)prop-2-en-1-one]: in data set [2], the Binding % entry is recorded as “+ (+ indicates binding activity up to 50%)”. Same read-out and setting: for `C=CC(=O)N1CCN(c2ncnc3c(F)c(-c4c(O)cccc4F)c(Cl)cc23)C2CC21` (stereo not shown) [III-16, 1-(5-(6-chloro-8-fluoro-7-(2-fluoro-6-hydroxy-phenyl)quinazolin-4-yl)-2,5-diazabicyclo [4.1.0.]heptan-2-yl)prop-2-en-1-one] the value was “+ (+ indicates binding activity up to 50%)”. Still for that read-out and setting: for `C=CC(=O)N1CCN(c2ncnc3c(F)c(-c4c(O)cccc4F)c(Cl)cc23)CC1C(F)F` (stereo not shown) [III-19, 1-(4-(6-chloro-8-fluoro-7-(2-fluoro-6-hydroxy-phenyl)quinazolin-4-yl)-2-(difluoro-methyl)piperazin-1-yl)prop-2-en-1-one] the value was “+++ (+++ indicates binding activity greater than 90%)”; for `C=CC(=O)N1CCN(c2ncnc3c(F)c(-c4c(C)ccc5[nH]ncc45)c(Cl)cc23)[C@@H](C)C1` [III-25, 1-((3S)-4-(6-chloro-8-fluoro-7-(5-methyl-1H-indazol-4-yl)quinazolin-4-yl)-3-methyl-piperazin-1-yl)prop-2-en-1-one], “+++ (+++ indicates binding activity greater than 90%)”. On the same count and under the same terms, for `C=CC(=O)N1[C@H](C)CN(c2ncnc3c(F)c(-c4c(C)ccc5[nH]ncc45)c(Cl)cc23)C[C@@H]1C` [III-26, 1-((2S,6R)-4-(6-chloro-8-fluoro-7-(5-methyl-1H-indazol-4-yl)quinazolin-4-yl)-2,6-dimethyl-piperazin-1-yl)prop-2-en-1-one] the value was “++ (++ indicates activity from 50% to 90%)”. Turning to `C=CC(=O)N1[C@H](C)CN(c2ncnc3c(F)c(-c4cc(O)cc5ccccc45)c(Cl)cc23)C[C@@H]1C` [III-27, 1-((2S,6R)-4-(6-chloro-8-fluoro-7-(3-hydroxy-naphthalen-1-yl)quinazolin-4-yl)-2,6-dimethyl-piperazin-1-yl)prop-2-en-1-one], the Binding % entry in data set [2] is “+++ (+++ indicates binding activity greater than 90%)”. Consider `C=CC(=O)N1C[C@@H](C)N(c2ncnc3c(F)c(-c4c(O)cccc4F)c(Cl)cc23)[C@@H](C)C1` [III-28, 1-((3R,5S)-4-(6-chloro-8-fluoro-7-(2-fluoro-6-hydroxy-phenyl)quinazolin-4-yl)-3,5-dimethyl-piperazin-1-yl)prop-2-en-1-one], for which the Binding % result in data set [2] is given as “+++ (+++ indicates binding activity greater than 90%)”. Still for that read-out and setting: the result for `C=CC(=O)N1CCN(c2ncnc3c(F)c(-c4cc(O)cc5ccccc45)c(Cl)cc23)[C@@H](C)C1` [III-30, 1-((3S)-4-(6-chloro-8-fluoro-7-(3-hydroxy-naphthalen-1-yl)quinazolin-4-yl)-3-methyl-piperazin-1-yl)prop-2-en-1-one] reads “+++ (+++ indicates binding activity greater than 90%)”.

Take `C=CC(=O)N1CCN(c2ncnc3c(F)c(-c4c(O)cccc4F)c(Cl)cc23)C2(CC2)C1` [III-31, 1-(4-(6-chloro-8-fluoro-7-(2-fluoro-6-hydroxy-phenyl)quinazolin-4-yl)-4,7-diazaspiro [2.5]octan-7-yl)prop-2-en-1-one]: the Binding % entry in data set [2] is given as “+ (+ indicates binding activity up to 50%)”. For the molecule `C=CC(=O)N1CCN(c2ncnc3c(F)c(-c4c(O)cccc4F)c(Cl)cc23)[C@@H](CC)C1` [III-32, 1-((3S)-4-(6-chloro-8-fluoro-7-(2-fluoro-6-hydroxy-phenyl)quinazolin-4-yl)-3-ethyl-piperazin-1-yl)prop-2-en-1-one], the Binding % result in data set [2] is reported as “++ (++ indicates activity from 50% to 90%)”. The same measure, in the same setting: the result for `C=CC(=O)N1C[C@@H](C)N(c2ncnc3c(F)c(-c4c(O)cccc4F)c(Cl)cc23)[C@H](C)C1` [III-33, 1-((3R,5R)-4-(6-chloro-8-fluoro-7-(2-fluoro-6-hydroxy-phenyl)quinazolin-4-yl)-3,5-dimethyl-piperazin-1-yl)prop-2-en-1-one] reads “+ (+ indicates binding activity up to 50%)”; that for `C=CC(=O)N1CCN(c2ncnc3c(F)c(-c4c(O)cccc4F)c(Cl)cc23)[C@@H](C(C)C)C1` [III-34, 1-((3S)-4-(6-chloro-8-fluoro-7-(2-fluoro-6-hydroxy-phenyl)quinazolin-4-yl)-3-isopropyl-piperazin-1-yl)prop-2-en-1-one], “+ (+ indicates binding activity up to 50%)”. Regarding `C=CC(=O)N1[C@H](C)CN(c2ncnc3c(F)c(-c4c(C)ccc5cn[nH]c45)c(Cl)cc23)C[C@@H]1C` [III-35, 1-((2S,6R)-4-(6-chloro-8-fluoro-7-(6-methyl-1H-indazol-7-yl)quinazolin-4-yl)-2,6-dimethyl-piperazin-1-yl)prop-2-en-1-one], the Binding % result in data set [2] is on record as “+++ (+++ indicates binding activity greater than 90%)”. Still for that read-out and setting: the result for `C=CC(=O)N1CCN(c2ncnc3c(F)c(-c4c(O)cccc4F)c(Cl)cc23)C(=O)C1` [III-38, 4-acryloyl-1-(6-chloro-8-fluoro-7-(2-fluoro-6-hydroxy-phenyl)quinazolin-4-yl) piperazin-2-one] reads “++ (++ indicates activity from 50% to 90%)”. On to `C=CC(=O)N1CCN(c2ncnc3c(F)c(-c4c(O)cccc4F)c(Cl)cc23)[C@@H](CO)C1` [III-39, 1-((3R)-4-(6-chloro-8-fluoro-7-(2-fluoro-6-hydroxy-phenyl)quinazolin-4-yl)-3-(hydroxy-methyl)piperazin-1-yl)prop-2-en-1-one], for which the Binding % entry in data set [2] is on record as “+ (+ indicates binding activity up to 50%)”. Still for that read-out and setting: the result for `C=CC(=O)N1C[C@@H](C)N(c2ncnc3c(F)c(-c4c(C)ccc5[nH]ncc45)c(Cl)cc23)[C@@H](C)C1` [III-40, 1-((3S,5R)-4-(6-chloro-8-fluoro-7-(5-methyl-1H-indazol-4-yl)quinazolin-4-yl)-3,5-dimethyl-piperazin-1-yl)prop-2-en-1-one] reads “++ (++ indicates activity from 50% to 90%)”. In the case of `C=CC(=O)N1C[C@@H](C)N(c2ncnc3c(F)c(-c4cc(O)cc5ccccc45)c(Cl)cc23)[C@@H](C)C1` [III-41, 1-((3S,5R)-4-(6-chloro-8-fluoro-7-(3-hydroxy-naphthalen-1-yl)quinazolin-4-yl)-3,5-dimethyl-piperazin-1-yl)prop-2-en-1-one], the Binding % entry in data set [2] was “++ (++ indicates activity from 50% to 90%)”. Still for that read-out and setting: for `C=CC(=O)N1C[C@@H](C)N(c2ncnc3c(F)c(-c4c(C)ccc5cn[nH]c45)c(Cl)cc23)[C@@H](C)C1` [III-42, 1-((3S,5R)-4-(6-chloro-8-fluoro-7-(6-methyl-1H-indazol-7-yl)quinazolin-4-yl)-3,5-dimethyl-piperazin-1-yl)prop-2-en-1-one] the value was “++ (++ indicates activity from 50% to 90%)”; for `C=CC(=O)N1[C@H](C)CN(c2c(C#N)cnc3c(F)c(-c4c(O)cccc4F)c(Cl)cc23)C[C@@H]1C` [III-43], “++ (++ indicates activity from 50% to 90%)”.
